Data as given in the supplement of paper PMC11061612.

Legend:
Assay in all cases: Bliss excess, mean over the matrix (fraction); higher = more synergy
[1] = system: CCRF-CEM (T-Lymphoblastic Leukemia)
In short: (§1)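 Cell lines in DMEM/F12 or RPMI with 10% FBS were plated in 1536-well plates, held 24 hours at 37°C, 5% CO2, then given two-drug dose matrices for 72 hours (DMSO typically 0.2%). Viability was read by CellTiter-Glo 2.0 luminescence and scaled as inhibition from 0 (vehicle wells) to 1 (blank wells). Combination Emax is the second-highest inhibition in the matrix; Bliss excess is observed combination effect minus expected EA + EB − EA·EB, EA and EB being single-agent effects.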

[2] = system: MFE-296 (Endometrial Carcinoma)
In short: as §1

T98G (Glioblastoma) = system: T98G (Glioblastoma)
In short: as §1

[3] = system: SK-ES-1 (Ewing's Sarcoma)
In short: as §1

[4] = system: MDA-MB-361 (Breast Carcinoma)
In short: as §1

[5] = system: TE-15 (Esophageal Squamous Cell Carcinoma)
In short: as §1

[6] = system: RC-K8 (B-Cell Non-Hodgkin's Lymphoma)
In short: as §1

42-MG-BA (Glioblastoma) = system: 42-MG-BA (Glioblastoma)
In short: as §1

[7] = system: NCI-H2085 (Non-Small Cell Lung Carcinoma)
In short: as §1

ES4 (Ewing's Sarcoma) = system: ES4 (Ewing's Sarcoma)
In short: as §1

[8] = system: DEL (T-Cell Non-Hodgkin's Lymphoma)
In short: as §1

[9] = system: ME-1 (Acute Myeloid Leukemia)
In short: as §1

[10] = system: LB831-BLC (Bladder Carcinoma)
In short: as §1

[11] = system: Ramos-2G6-4C10 (Burkitt's Lymphoma)
In short: as §1

[12] = system: CaR-1 (Colorectal Carcinoma)
In short: as §1

[13] = system: UM-UC-3 (Bladder Carcinoma)
In short: as §1

[14] = system: TE-9 (Esophageal Squamous Cell Carcinoma)
In short: as §1

[15] = system: LU-135 (Small Cell Lung Carcinoma)
In short: as §1

AGS (Gastric Carcinoma) = system: AGS (Gastric Carcinoma)
In short: as §1

[16] = system: SNU-5 (Gastric Carcinoma)
In short: as §1

SMILES | Bliss excess [1] | Bliss excess [2] | Bliss excess (T98G (Glioblastoma)) | Bliss excess [3] | Bliss excess [4] | Bliss excess [5] | Bliss excess [6] | Bliss excess (42-MG-BA (Glioblastoma)) | Bliss excess [7] | Bliss excess (ES4 (Ewing's Sarcoma)) | Bliss excess [8] | Bliss excess [9] | Bliss excess [10] | Bliss excess [11] | Bliss excess [12] | Bliss excess [13] | Bliss excess [14] | Bliss excess [15] | Bliss excess (AGS (Gastric Carcinoma)) | Bliss excess [16]
COc1cc2ncnc(Nc3ccc(F)c(Cl)c3)c2cc1OCCCN1CCOCC1 [Gefitinib] + CC(C)n1c(=O)n(C)c2cnc3cc(F)c(-c4ccc(OCCCN5CCCCC5)nc4)cc3c21 [AZD1390] (first compound max 10 µM, 7x7, partner max 0.3 µM) | -0.0419 | -0.0483 | -0.0557 | -0.0733 | -0.0535 | -0.0941 | -0.0473 | -0.0891 | -0.0515 | -0.0177 | -0.0317 | -0.0238 | -0.0482 | -0.0626 | -0.0812 | -0.0583 | -0.0522 | -0.0801 | -0.0871 | -0.0887
CS(=O)(=O)CCNCc1ccc(-c2ccc3ncnc(Nc4ccc(OCc5cccc(F)c5)c(Cl)c4)c3c2)o1 [Lapatinib] + C[C@@H](Oc1cc(-c2cnn(C3CCNCC3)c2)cnc1N)c1c(Cl)ccc(F)c1Cl [Crizotinib] (first compound max 10 µM, 7x7, partner max 10 µM) | -0.0185 | -0.0288 | -0.0861 | -0.0015 | 0.0278 | -0.0148 | -0.0433 | -0.0709 | -0.0813 | -0.0261 | 0.0074 | -0.0344 | -0.0321 | -0.113 | -0.0084 | -0.0739 | -0.0194 | 0.0255 | 0.0118 | 0.0306
CC(=O)c1c(C)c2cnc(Nc3ccc(N4CCNCC4)cn3)nc2n(C2CCCC2)c1=O [Palbociclib] + CC1(C)CCC(CN2CCN(c3ccc(C(=O)NS(=O)(=O)c4ccc(NCC5CCOCC5)c([N+](=O)[O-])c4)c(Oc4cnc5[nH]ccc5c4)c3)CC2)=C(c2ccc(Cl)cc2)C1 [Venetoclax] (first compound max 10 µM, 7x7, partner max 1 µM) | -0.008 | -0.0262 | -0.0075 | 0.0758 | -0.0751 | -0.0257 | -0.0904 | -0.0093 | -0.0306 | -0.0334 | 0.027 | -0.0012 | -0.0523 | -0.106 | -0.0507 | -0.0219 | -0.035 | 0.0482 | -0.0493 | 0.0453
CC(=O)c1c(C)c2cnc(Nc3ccc(N4CCNCC4)cn3)nc2n(C2CCCC2)c1=O [Palbociclib] + Cc1c2c(nn1C)CSCc1cc(n(C)n1)CSc1cc(c3ccccc3c1)OCCCc1c(C(=O)O)n(C)c3c-2c(Cl)ccc13 [AZD5991] (first compound max 10 µM, 7x7, partner max 1 µM) | -0.014 | -0.0142 | 0.0003 | -0.0088 | -0.0789 | -0.0236 | -0.0555 | -0.0391 | -0.0374 | -0.046 | 0.0007 | -0.0141 | -0.0092 | -0.0226 | -0.0621 | -0.0212 | -0.0334 | 0.0165 | -0.04 | -0.0206
CC(=O)c1c(C)c2cnc(Nc3ccc(N4CCNCC4)cn3)nc2n(C2CCCC2)c1=O [Palbociclib] + Cn1cnc2c(F)c(Nc3ccc(Br)cc3Cl)c(C(=O)NOCCO)cc21 [Selumetinib] (first compound max 10 µM, 7x7, partner max 10 µM) | 0.0385 | -0.0574 | -0.0103 | -0.0161 | -0.0238 | 0.0179 | -0.0203 | -0.0776 | 0.0018 | -0.0359 | 0.0224 | -0.0321 | -0.0339 | -0.023 | -0.0229 | -0.0001 | 0.0099 | 0.0056 | -0.0123 | 0.0031
COc1cccc(OCCCN)c1-c1cc(Nc2cnc(C#N)cn2)n[nH]1 [Prexasertib] + CCc1c2c(nc3ccc(O)cc13)-c1cc3c(c(=O)n1C2)COC(=O)[C@]3(O)CC [SN-38] (first compound max 1 µM, 7x7, partner max 0.3 µM) | -0.0078 | 0.0106 | 0.0121 | -0.0081 | -0.0298 | -0.0275 | -0.0506 | 0.0122 | -0.0245 | -0.0923 | -0.0068 | 0.0086 | 0.0581 | 0.0754 | -0.053 | 0.0017 | 0.0438 | -0.0623 | -0.0467 | -0.0085
C[C@@H](c1ccc2nccn2c1)n1nnc2ncc(-c3cnn(C)c3)nc21 [Savolitinib] + CC1(C)CCC(CN2CCN(c3ccc(C(=O)NS(=O)(=O)c4ccc(NCC5CCOCC5)c([N+](=O)[O-])c4)c(Oc4cnc5[nH]ccc5c4)c3)CC2)=C(c2ccc(Cl)cc2)C1 [Venetoclax] (first compound max 1 µM, 7x7, partner max 1 µM) | -0.0527 | -0.0427 | -0.0064 | -0.0545 | -0.0349 | -0.0227 | -0.0489 | -0.04 | -0.0364 | -0.0443 | -0.0385 | -0.0192 | -0.0978 | -0.0183 | -0.0617 | -0.0574 | -0.0307 | -0.0561 | -0.0729 | -0.0585
C[C@@H](c1ccc2nccn2c1)n1nnc2ncc(-c3cnn(C)c3)nc21 [Savolitinib] + Cc1c2c(nn1C)CSCc1cc(n(C)n1)CSc1cc(c3ccccc3c1)OCCCc1c(C(=O)O)n(C)c3c-2c(Cl)ccc13 [AZD5991] (first compound max 1 µM, 7x7, partner max 1 µM) | 0.0088 | -0.0228 | -0.021 | -0.0326 | -0.0841 | -0.0511 | -0.0257 | -0.0633 | -0.0401 | -0.0724 | -0.0441 | -0.051 | -0.0148 | 0.0002 | -0.0725 | -0.0161 | -0.0683 | -0.0056 | -0.0855 | 0.0188
Cn1cnc2c(F)c(Nc3ccc(Br)cc3Cl)c(C(=O)NOCCO)cc21 [Selumetinib] + C=CCn1c(=O)c2cnc(Nc3ccc(N4CCN(C)CC4)cc3)nc2n1-c1cccc(C(C)(C)O)n1 [AZD1775] (first compound max 10 µM, partner max 1 µM) | 0.0378 | -0.059 | -0.0395 | -0.0706 | -0.053 | -0.0299 | -0.0714 | -0.0509 | -0.0751 | -0.0679 | -0.043 | -0.0255 | -0.08 | -0.0956 | -0.0218 | -0.0187 | -0.0343 | -0.0337 | 0.0064 | -0.0239
Cn1cnc2c(F)c(Nc3ccc(Br)cc3Cl)c(C(=O)NOCCO)cc21 [Selumetinib] + CC(C)n1c(=O)n(C)c2cnc3cc(F)c(-c4ccc(OCCCN5CCCCC5)nc4)cc3c21 [AZD1390] (first compound max 10 µM, 7x7, partner max 0.3 µM) | -0.0131 | -0.0529 | -0.0125 | -0.0246 | -0.044 | -0.0359 | -0.0253 | -0.0321 | -0.06 | -0.0515 | 0.0087 | 0.0338 | -0.0237 | -0.0211 | -0.041 | -0.0205 | -0.0228 | -0.0318 | -0.0446 | 0.0649
Cn1cnc2c(F)c(Nc3ccc(Br)cc3Cl)c(C(=O)NOCCO)cc21 [Selumetinib] + CCN(CCO)CCCOc1ccc2c(Nc3cc(CC(=O)Nc4cccc(F)c4)[nH]n3)ncnc2c1 [AZD2811] (first compound max 10 µM, 7x7, partner max 1 µM) | 0.0007 | -0.0309 | -0.0104 | -0.0272 | -0.004 | -0.0741 | 0.0763 | -0.0458 | -0.0589 | -0.0398 | 0.263 | -0.0296 | -0.0385 | -0.0321 | 0.0301 | -0.048 | -0.0347 | -0.0118 | 0.11 | 0.0274
Cn1cnc2c(F)c(Nc3ccc(Br)cc3Cl)c(C(=O)NOCCO)cc21 [Selumetinib] + C[C@@H]1COCCN1C2=NC(=NC(=C2)C3(CC3)[S@](=N)(=O)C)C4=C5C=CNC5=NC=C4 [AZD6738] (first compound max 10 µM, 7x7, partner max 10 µM) | -0.0108 | -0.0543 | -0.0174 | -0.005 | -0.0396 | 0.0391 | 0.0091 | -0.0061 | -0.0063 | -0.039 | 0.0172 | -0.0752 | -0.0569 | -0.0714 | -0.069 | 0.0057 | -0.0063 | 0.0383 | 0.0281 | 0.0524
CC(=O)Nc1cccc(-n2c(=O)n(C3CC3)c(=O)c3c(Nc4ccc(I)cc4F)n(C)c(=O)c(C)c32)c1 [Trametinib] + Cc1nc(-c2cn3c(n2)-c2ccc(-c4cnn(C(C)(C)C(N)=O)c4)cc2OCC3)n(C(C)C)n1 [Taselisib] (first compound max 1 µM, 7x7, partner max 10 µM) | 0.0951 | 0.0323 | 0.0822 | 0.0641 | 0.0263 | 0.0816 | 0.0907 | 0.0593 | 0.0062 | 0.0891 | 0.166 | 0.118 | 0.0977 | -0.0053 | 0.0783 | 0.137 | 0.073 | 0.113 | 0.122 | 0.141
CC1(C)CCC(CN2CCN(c3ccc(C(=O)NS(=O)(=O)c4ccc(NCC5CCOCC5)c([N+](=O)[O-])c4)c(Oc4cnc5[nH]ccc5c4)c3)CC2)=C(c2ccc(Cl)cc2)C1 [Venetoclax] + C1CN(CCC1(C(=O)N[C@@H](CCO)C2=CC=C(C=C2)Cl)N)C3=NC=NC4=C3C=CN4 [Capivasertib] (first compound max 1 µM, 7x7, partner max 3 µM) | 0.0042 | -0.0063 | -0.0382 | 0.0068 | 0.0068 | -0.0429 | -0.0173 | -0.0239 | -0.0569 | -0.0231 | -0.0589 | 0 | -0.0272 | 0.0177 | -0.0045 | 0.0009 | -0.0114 | -0.0429 | -0.0406 | -0.0485
